Data: US6399634B1, “Benzothiophene compounds, compositions, and methods” (Eli Lilly and Company, priority 1994, dated 2002)

System: Uterine Eosinophil Peroxidase (EPO)
Experiment: Uterine Eosinophil Peroxidase (EPO) Assay on uteri of dosed OVX rats
Type: in vivo, Sprague Dawley rats
Conditions: ovariectomized rats

`C[C@]12CC[C@@H]3c4ccc(O)cc4CC[C@H]3[C@@H]1CC[C@@H]2O` [estradiol] was tested. Which “Eosinophil infiltration into the uterus (number of eosinophils in the stromal layer, in words)” value did it give?
Its value is “substantial, expected increase in eosinophil infiltration”.
